The term Km denotes the substrate concentration at which the rate is half of its maximum.

Structures are written as SMILES. Where two headings read alike, the source gives them in different places.

The text below walks through data of patent US5874078A, “Reagent composition of glutamate dehydrogenase from pseudomonas” (Toyo Boseki Kabushiki Kaisha, priority 1994, dated 1999).

For experiment [1], the system named is glutamate dehydrogenase from Pseudomonas sp. 433-3 (FERM P-14092). The experiment is described as follows: Km values of glutamate dehydrogenase. The format is biochemical. The method, then:
The above reaction mixture solution (2.9 ml) is taken in a cuvette and subjected to a preliminary heating at 30° C. for about five minutes. Then the reaction is initiated by adding 0.1 ml of an enzyme solution thereto, decrease in absorbance of 340 nm in a spectrophotometer controlled at 30° C. is recorded for 3-4 minutes and, out of its linear portion, the decrease in the absorbance per minute is determined. A blank test is carried out according to the same operations as above except that 0.1M Tris-HCl buffer (pH: 8.3) is added instead of the enzyme solution. […]
The above reaction mixture solution (2.9 ml) was taken in a cuvette and subjected to a preliminary heating at 30° C. for about five minutes. Then the reaction was initiated by adding 0.1 ml of an enzyme solution thereto, […] at 30° C. was recorded for 3-4 minutes and, out of its linear portion, the decrease in the absorbance per minute was determined. A blank test was carried out according to the same operations as above except that 0.1M Tris-HCl buffer (pH: 9.0) was added instead of the enzyme solution.

For experiment [2] the test system is unchanged. Put plainly: Activation by ADP (reductive amination activity). The conditions noted are these: pH 8.3, 30° C. The format is biochemical. The method, then: (§1) A method of measuring an activity of the glutamate dehydrogenase of the present invention by means of a reductive amination will be as follows.
(§2) The above reaction mixture solution (2.9 ml) is taken in a cuvette and subjected to a preliminary heating at 30° C. for about five minutes. Then the reaction is initiated by adding 0.1 ml of an enzyme solution thereto, decrease in absorbance of 340 nm in a spectrophotometer controlled at 30° C. is recorded for 3-4 minutes and, out of its linear portion, the decrease in the absorbance per minute is determined. A blank test is carried out according to the same operations as above except that 0.1M Tris-HCl buffer (pH: 8.3) is added instead of the enzyme solution. The way of expression of an activity of the glutamate dehydrogenase is in such a manner that the amount of the enzyme by which 1 micromole of NADH is oxidized per minute under the above-mentioned conditions is defined as one unit (U).
(§3) ADP was added to the reagent for measuring the activity of glutamate dehydrogenase of the present invention (a reductive amination) to make it 2.5 mM and the resulting activity was compared with that where nothing was added.

For experiment [3], the target named is T1, Bovine Liver CLDH (glutamate dehydrogenase derived from bovine liver) (Bos taurus, UniProt P00366).
T1 construct: Bovine Liver CLDH; from tissue; host or cells: bovine liver
T1 sequence (P00366 58-558): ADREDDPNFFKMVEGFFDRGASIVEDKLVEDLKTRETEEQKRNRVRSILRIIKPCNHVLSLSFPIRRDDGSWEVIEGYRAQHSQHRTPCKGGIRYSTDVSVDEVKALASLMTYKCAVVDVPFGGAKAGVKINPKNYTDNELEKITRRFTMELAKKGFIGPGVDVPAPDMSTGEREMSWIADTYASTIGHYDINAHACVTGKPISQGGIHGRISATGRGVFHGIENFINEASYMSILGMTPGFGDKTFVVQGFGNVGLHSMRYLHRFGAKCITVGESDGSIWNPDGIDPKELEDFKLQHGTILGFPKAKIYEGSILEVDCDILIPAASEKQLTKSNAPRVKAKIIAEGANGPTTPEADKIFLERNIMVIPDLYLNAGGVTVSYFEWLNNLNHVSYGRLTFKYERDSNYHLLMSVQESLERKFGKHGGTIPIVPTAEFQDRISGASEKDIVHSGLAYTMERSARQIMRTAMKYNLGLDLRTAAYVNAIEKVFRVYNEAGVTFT
The experiment is described as follows: Activation by ADP (reductive amination activity). It is filed as biochemical. The conditions noted are these: 2.5 mM ADP, pH 8.3, 30° C., read-out: activity with 2.5 mM ADP (without ADP = 100%). On the procedure:
as §1, §2, §3

Experiment [4] concerns the target NAD+-dependent glutamate dehydrogenase (EC 1.4.1.2) from Peptococcus aerogene (Peptoniphilus asaccharolyticus, UniProt P28997). The conditions noted are these: read-out: Km Value to NH3; Table 3; Can. J. Microbiol. 18, 881 (1972); cited from earlier work.
Experiment [5] deals with NAD+-dependent glutamate dehydrogenase (EC 1.4.1.2) from Clostridium sp. SB4. The conditions noted are these: read-out: Km Value to NH3; Table 3; The Enzymes, 3rd Ed. 11, 293 (1975); cited from earlier work.
Experiment [6] has as its system NAD+-dependent glutamate dehydrogenase (EC 1.4.1.2) from Synechocystis sp. The conditions noted are these: read-out: Km Value to NH3; Table 3; FEBS Lett. 285, 35 (1991); cited from earlier work.

Chain of NAD+-dependent glutamate dehydrogenase (EC 1.4.1.2) from Peptococcus aerogene (P28997 whole entry): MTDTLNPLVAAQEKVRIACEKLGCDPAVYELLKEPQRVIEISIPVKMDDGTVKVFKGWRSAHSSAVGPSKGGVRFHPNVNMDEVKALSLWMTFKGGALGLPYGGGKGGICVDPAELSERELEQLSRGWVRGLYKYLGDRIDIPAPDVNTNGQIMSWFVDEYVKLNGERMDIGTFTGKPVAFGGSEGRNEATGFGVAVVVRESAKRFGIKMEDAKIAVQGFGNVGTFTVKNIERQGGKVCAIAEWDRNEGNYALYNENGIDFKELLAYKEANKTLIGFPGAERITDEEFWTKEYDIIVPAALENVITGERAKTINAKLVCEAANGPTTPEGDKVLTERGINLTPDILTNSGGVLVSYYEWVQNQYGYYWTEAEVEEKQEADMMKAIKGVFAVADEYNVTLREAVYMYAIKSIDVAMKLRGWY

Take `NC(=O)C1=CN([C@@H]2O[C@H](COP(=O)(O)OP(=O)(O)OC[C@H]3O[C@@H](n4cnc5c(N)ncnc54)[C@H](O)[C@@H]3O)[C@@H](O)[C@H]2O)C=CC1` [NADH]: the Km in experiment [1] (read-out: Km value to NADH) worked out at 0.19 mM.
Consider `NC(=O)c1ccc[n+]([C@@H]2O[C@H](COP(=O)(O)OP(=O)([O-])OC[C@H]3O[C@@H](n4cnc5c(N)ncnc54)[C@H](O)[C@@H]3O)[C@@H](O)[C@H]2O)c1` [NAD^+], for which the Km in experiment [1] (read-out: Km value to NAD^+) was 0.1 mM.
`Nc1ncnc2c1ncn2[C@@H]1O[C@H](COP(=O)(O)OP(=O)(O)O)[C@@H](O)[C@H]1O` [ADP]: the “activity with 2.5 mM ADP (without ADP = 100%)” value in experiment [2] was 100%. Moreover, the activity at 2500 µM in experiment [3] worked out at 145%.
With `N` [ammonia], the Km was 18.4 mM in experiment [4]; 0.32 mM in experiment [5]; 4.5 mM in experiment [6]; 8.5 mM in experiment [1] (Table 3, This Invention, read-out: Km Value to NH3); 8.5 mM in experiment [1] (read-out: Km value to ammonia).
With `N[C@@H](CCC(=O)O)C(=O)O` [L-glutamic acid], the Km in experiment [1] (read-out: Km value to L-glutamic acid) was found to be 17 mM.
